Measurements as given in ChEMBL document CHEMBL1208783, “An orally bioavailable positive allosteric modulator of the mGlu4 receptor with efficacy in an animal model of motor dysfunction” (Bioorg Med Chem Lett, 2010).
pEC50, pIC50: −log10 of the molar value.

Tests used:
[1] = target: T1, Metabotropic glutamate receptor 4 (Homo sapiens, UniProt Q14833); assay: Positive allosteric modulation of human mGluR4 expressed in CHO-K1 cells assessed as decrease in forskolin-induced intracellular cAMP accumulation after 1 hr by fluorescence assay; assay type: functional, cell-based
[2] = target: T1, Metabotropic glutamate receptor 4; assay: Positive allosteric modulation of human mGluR4 expressed in CHO-K1 cells assessed as decrease in forskolin-induced intracellular cAMP accumulation after 1 hr by fluorescence assay relative to (-)-PHCC; assay type: functional, cell-based
[3] = Metabolic stability in human microsomes; assay type: ADME, Microsome
Homo sapiens = species on record: Homo sapiens; assay: Hepatic blood flow in human; assay type: ADME, organism-based, Liver
[4] = target: T2, Metabotropic glutamate receptor 5 (Homo sapiens, UniProt P41594); assay: Agonist activity at human mGluR5 expressed in CHO-K1 cells in absence of glutamate; assay type: functional, cell-based
[5] = Plasma protein binding in rat; assay type: ADME, cell-free; settings: read-out: PPB (converted)
Cytochrome P450 3A4 = Cytochrome P450 3A4 (Homo sapiens, UniProt P08684); assay: Inhibition of CYP3A4 up to 50 uM; assay type: ADME
Cytochrome P450 2C19 = Cytochrome P450 2C19 (Homo sapiens, UniProt P33261); assay: Inhibition of CYP2C19 up to 50 uM; assay type: ADME
[6] = Drug level in rat brain at 30 mg/kg, po measured at 30 mins post dose; assay type: ADME, organism-based; set-up: dose 30 mg/kg, route oral; settings: read-out: Drug uptake
[7] = target: T1, Metabotropic glutamate receptor 4; assay: Agonist activity at human mGluR4 expressed in CHO-K1 cells; assay type: functional, cell-based
Cytochrome P450 2D6 = Cytochrome P450 2D6 (Homo sapiens, UniProt P10635); assay: Inhibition of CYP2D6 up to 50 uM; assay type: ADME
[8] = Volume of distribution in rat at 2 mg/kg, iv; assay type: ADME, organism-based; set-up: dose 2 mg/kg, route intravenous; settings: in vivo
[9] = Ratio of drug level in brain to plasma in rat at 30 mg/kg, po measured at 30 mins post dose; assay type: ADME, organism-based; set-up: dose 30 mg/kg, route oral; settings: read-out: BPR
[10] = Permeability from apical to basolateral side of human Caco-2 cells; assay type: ADME, cell-based; settings: read-out: permeability
Rattus norvegicus [11] = assay: Inhibition of haloperidol-induced catalepsy in po dosed rat administered 30 mins before haloperidol challenge; assay type: functional, organism-based
Cytochrome P450 2C9 = Cytochrome P450 2C9 (Homo sapiens, UniProt P11712); assay: Inhibition of CYP2C9 up to 50 uM; assay type: ADME
Rattus norvegicus [12] = species on record: Rattus norvegicus; assay: Hepatic blood flow in rat; assay type: ADME, organism-based, Liver
[13] = target: T2, Metabotropic glutamate receptor 5; assay: Positive allosteric modulation of human mGluR5 expressed in CHO-K1 cells; assay type: cell-based
[14] = target: T2, Metabotropic glutamate receptor 5; assay: Negative allosteric modulation of human mGluR5 expressed in CHO-K1 cells; assay type: cell-based
[15] = Drug level in rat CSF at 30 mg/kg, po measured at 30 mins post dose; assay type: ADME, organism-based, Cerebrospinal fluid; set-up: dose 30 mg/kg, route oral; settings: read-out: Drug uptake
[16] = Mean residence time in rat at 2 mg/kg, iv; assay type: ADME, organism-based; set-up: dose 2 mg/kg, route intravenous; settings: in vivo, read-out: Time
[17] = target: T3, Alpha-2A adrenergic receptor (Homo sapiens) (UniProt P08913); assay: Activity at adrenergic alpha 2A receptor at 10 uM
T3 sequence (whole entry): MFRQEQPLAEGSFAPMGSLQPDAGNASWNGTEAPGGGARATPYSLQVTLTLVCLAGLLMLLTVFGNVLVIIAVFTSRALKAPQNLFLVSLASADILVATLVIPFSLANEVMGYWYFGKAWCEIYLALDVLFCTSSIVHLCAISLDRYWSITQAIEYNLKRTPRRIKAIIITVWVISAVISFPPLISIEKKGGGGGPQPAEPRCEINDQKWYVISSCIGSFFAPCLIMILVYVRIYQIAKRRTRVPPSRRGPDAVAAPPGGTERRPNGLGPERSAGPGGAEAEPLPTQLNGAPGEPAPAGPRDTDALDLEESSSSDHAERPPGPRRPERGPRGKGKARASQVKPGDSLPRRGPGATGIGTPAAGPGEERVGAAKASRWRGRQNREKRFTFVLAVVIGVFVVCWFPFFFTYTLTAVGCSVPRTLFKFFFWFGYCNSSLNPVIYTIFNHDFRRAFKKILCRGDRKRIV

[18] = Permeability from basolateral to apical side of human Caco-2 cells; assay type: ADME, cell-based; settings: read-out: permeability
[19] = target: Metabotropic glutamate receptor 5 (Rattus norvegicus, UniProt P31424); assay: Negative allosteric modulation of rat mGluR5 expressed in CHO-K1 cells; assay type: cell-based
[20] = Oral bioavailability in rat at 30 mg/kg, po after 30 mins; assay type: ADME, organism-based; settings: in vivo
[21] = target: Adenosine receptor A2a (Homo sapiens) (UniProt P29274); assay: Activity at adenosine A2A receptor at 10 uM
[22] = Metabolic stability in rat microsomes; assay type: ADME, Microsome
[23] = Clearance in rat at 2 mg/kg, iv; assay type: ADME, organism-based; set-up: dose 2 mg/kg, route intravenous; settings: in vivo
[24] = target: T4, 5-hydroxytryptamine receptor 1A (Homo sapiens) (UniProt P08908); assay: Activity at 5HT1A receptor at 10 uM
T4 sequence (whole entry): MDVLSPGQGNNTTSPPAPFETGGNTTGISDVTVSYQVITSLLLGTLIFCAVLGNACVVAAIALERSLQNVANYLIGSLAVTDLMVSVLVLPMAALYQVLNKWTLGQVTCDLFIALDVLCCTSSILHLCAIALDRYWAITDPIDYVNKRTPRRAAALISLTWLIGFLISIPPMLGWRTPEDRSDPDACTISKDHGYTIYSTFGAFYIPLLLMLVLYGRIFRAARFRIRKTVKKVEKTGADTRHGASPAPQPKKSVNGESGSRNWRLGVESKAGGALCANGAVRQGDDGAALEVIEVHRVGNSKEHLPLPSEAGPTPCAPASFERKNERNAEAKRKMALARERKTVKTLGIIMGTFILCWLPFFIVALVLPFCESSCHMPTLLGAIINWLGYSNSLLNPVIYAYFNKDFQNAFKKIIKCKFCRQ

[25] = target: Metabotropic glutamate receptor 4 (Rattus norvegicus, UniProt P31423); assay: Positive allosteric modulation of rat mGluR4 expressed in CHO-K1 cells; assay type: cell-based
[26] = Drug level in rat plasma at 30 mg/kg, po measured at 30 mins post dose; assay type: ADME, organism-based; set-up: dose 30 mg/kg, route oral; settings: read-out: Drug uptake

T1 sequence (Q14833 whole entry): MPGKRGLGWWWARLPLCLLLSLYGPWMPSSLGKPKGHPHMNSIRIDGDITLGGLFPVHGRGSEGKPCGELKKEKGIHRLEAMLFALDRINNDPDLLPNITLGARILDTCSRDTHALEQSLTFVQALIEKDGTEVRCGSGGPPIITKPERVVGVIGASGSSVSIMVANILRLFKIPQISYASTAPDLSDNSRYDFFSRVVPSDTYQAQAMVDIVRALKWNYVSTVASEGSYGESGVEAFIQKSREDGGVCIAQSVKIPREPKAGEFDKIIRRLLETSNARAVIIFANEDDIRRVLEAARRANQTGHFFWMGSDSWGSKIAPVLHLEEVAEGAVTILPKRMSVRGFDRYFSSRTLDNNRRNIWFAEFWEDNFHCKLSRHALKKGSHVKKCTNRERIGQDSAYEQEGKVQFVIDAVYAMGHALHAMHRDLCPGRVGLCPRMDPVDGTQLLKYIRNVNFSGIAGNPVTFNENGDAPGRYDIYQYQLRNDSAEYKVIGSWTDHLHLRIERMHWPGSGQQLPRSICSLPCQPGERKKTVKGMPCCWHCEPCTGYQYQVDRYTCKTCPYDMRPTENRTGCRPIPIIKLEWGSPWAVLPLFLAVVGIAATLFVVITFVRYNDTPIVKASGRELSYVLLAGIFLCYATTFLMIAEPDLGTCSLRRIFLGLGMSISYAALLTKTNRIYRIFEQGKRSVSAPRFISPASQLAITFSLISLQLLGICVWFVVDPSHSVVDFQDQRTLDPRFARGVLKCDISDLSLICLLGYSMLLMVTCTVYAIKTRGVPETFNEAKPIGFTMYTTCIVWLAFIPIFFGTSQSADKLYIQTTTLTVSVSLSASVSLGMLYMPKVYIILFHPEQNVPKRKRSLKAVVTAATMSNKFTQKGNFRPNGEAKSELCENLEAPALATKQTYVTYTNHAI
T2 sequence (P41594 whole entry): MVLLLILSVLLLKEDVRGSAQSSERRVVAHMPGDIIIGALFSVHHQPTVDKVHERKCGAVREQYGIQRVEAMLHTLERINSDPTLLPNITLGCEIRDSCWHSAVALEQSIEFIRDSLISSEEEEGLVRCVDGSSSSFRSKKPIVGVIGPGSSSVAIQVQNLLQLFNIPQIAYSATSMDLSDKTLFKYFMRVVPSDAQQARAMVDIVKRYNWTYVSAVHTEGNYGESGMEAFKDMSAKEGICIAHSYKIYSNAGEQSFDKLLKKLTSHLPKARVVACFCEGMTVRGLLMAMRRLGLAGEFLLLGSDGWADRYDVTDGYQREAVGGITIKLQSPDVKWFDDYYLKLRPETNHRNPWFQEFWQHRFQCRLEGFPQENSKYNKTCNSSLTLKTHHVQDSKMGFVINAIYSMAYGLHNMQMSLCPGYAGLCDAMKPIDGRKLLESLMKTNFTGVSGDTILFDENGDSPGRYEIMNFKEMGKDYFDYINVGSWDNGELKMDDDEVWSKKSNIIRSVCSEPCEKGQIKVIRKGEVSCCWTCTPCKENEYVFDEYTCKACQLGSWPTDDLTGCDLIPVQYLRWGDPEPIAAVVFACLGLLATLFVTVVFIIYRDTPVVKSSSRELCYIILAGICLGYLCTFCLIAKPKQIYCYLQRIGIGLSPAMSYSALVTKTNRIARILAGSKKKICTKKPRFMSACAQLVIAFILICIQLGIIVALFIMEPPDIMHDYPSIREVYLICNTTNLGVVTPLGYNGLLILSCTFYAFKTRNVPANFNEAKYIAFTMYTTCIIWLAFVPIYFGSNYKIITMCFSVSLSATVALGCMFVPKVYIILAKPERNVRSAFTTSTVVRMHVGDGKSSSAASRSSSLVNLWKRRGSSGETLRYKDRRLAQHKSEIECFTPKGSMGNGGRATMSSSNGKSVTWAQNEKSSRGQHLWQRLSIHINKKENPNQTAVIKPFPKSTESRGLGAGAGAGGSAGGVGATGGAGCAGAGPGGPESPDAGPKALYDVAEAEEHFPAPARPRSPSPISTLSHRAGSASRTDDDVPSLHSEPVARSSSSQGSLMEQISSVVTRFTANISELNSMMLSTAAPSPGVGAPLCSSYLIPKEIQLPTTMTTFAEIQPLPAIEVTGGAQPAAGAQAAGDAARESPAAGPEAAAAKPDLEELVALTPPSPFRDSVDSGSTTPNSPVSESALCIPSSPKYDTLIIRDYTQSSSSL
Cytochrome P450 2C9, sequence (P11712 whole entry): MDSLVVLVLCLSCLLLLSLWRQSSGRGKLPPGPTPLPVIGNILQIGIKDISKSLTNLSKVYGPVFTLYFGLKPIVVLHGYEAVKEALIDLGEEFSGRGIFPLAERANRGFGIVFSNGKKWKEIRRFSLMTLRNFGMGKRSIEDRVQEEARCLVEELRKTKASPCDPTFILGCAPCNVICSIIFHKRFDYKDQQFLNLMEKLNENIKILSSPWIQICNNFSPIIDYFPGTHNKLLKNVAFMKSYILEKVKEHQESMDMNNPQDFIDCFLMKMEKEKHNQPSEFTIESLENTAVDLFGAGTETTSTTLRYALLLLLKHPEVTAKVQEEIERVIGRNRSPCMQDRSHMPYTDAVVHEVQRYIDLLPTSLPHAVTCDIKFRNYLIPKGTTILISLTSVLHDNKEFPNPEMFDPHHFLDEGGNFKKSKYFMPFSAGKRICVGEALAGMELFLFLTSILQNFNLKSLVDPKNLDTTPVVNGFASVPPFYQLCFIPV
Metabotropic glutamate receptor 4 (Rattus norvegicus, UniProt P31423), sequence (P31423 whole entry): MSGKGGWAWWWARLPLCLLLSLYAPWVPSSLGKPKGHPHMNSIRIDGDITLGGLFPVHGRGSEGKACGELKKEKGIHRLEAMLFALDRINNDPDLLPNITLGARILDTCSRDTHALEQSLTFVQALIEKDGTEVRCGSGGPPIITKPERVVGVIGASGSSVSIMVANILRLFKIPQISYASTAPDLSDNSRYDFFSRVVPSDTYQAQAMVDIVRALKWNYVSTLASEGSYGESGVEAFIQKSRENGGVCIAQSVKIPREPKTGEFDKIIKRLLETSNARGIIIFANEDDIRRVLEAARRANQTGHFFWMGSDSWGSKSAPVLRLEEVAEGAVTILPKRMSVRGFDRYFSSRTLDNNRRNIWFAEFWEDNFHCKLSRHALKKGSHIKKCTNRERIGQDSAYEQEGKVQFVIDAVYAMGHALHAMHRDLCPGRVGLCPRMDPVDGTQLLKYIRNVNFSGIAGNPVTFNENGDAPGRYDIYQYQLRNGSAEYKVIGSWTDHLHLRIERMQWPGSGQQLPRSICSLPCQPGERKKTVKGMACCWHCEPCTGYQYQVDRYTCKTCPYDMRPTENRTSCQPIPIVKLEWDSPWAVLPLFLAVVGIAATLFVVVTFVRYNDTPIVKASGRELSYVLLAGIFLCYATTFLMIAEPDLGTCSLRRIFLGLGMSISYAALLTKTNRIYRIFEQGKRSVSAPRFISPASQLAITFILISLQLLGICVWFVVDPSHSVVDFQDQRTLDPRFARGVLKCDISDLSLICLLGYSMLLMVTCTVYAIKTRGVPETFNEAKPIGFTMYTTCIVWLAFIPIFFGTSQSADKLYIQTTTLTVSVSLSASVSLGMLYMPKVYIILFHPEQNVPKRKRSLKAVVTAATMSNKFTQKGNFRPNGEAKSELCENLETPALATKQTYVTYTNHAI
Cytochrome P450 3A4, sequence (P08684 whole entry): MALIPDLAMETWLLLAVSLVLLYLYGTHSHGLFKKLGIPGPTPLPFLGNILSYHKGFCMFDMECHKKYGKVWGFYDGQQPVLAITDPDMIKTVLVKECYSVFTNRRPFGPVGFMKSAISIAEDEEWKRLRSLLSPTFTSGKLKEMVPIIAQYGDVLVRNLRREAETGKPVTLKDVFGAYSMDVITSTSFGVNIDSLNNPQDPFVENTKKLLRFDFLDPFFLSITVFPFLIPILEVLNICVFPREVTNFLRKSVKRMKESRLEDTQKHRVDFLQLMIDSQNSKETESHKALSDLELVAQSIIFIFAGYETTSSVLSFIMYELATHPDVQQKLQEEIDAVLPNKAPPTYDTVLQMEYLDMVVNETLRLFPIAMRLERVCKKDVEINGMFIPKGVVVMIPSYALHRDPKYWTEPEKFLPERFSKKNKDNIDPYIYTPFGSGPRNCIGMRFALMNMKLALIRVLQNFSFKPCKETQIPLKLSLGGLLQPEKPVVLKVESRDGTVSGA
Adenosine receptor A2a (Homo sapiens), sequence (P29274 whole entry): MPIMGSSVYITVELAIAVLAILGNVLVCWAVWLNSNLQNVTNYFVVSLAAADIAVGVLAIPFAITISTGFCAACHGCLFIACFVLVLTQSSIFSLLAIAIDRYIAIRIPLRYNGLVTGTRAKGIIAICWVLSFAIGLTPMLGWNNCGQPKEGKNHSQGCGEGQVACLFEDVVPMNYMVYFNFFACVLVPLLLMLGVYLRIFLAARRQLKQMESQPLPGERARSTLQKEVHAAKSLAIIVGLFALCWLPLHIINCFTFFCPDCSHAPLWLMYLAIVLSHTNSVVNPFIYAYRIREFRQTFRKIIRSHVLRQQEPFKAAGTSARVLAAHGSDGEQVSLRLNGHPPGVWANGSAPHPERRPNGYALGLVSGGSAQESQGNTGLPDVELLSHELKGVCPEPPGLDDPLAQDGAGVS
Cytochrome P450 2D6, sequence (P10635 whole entry): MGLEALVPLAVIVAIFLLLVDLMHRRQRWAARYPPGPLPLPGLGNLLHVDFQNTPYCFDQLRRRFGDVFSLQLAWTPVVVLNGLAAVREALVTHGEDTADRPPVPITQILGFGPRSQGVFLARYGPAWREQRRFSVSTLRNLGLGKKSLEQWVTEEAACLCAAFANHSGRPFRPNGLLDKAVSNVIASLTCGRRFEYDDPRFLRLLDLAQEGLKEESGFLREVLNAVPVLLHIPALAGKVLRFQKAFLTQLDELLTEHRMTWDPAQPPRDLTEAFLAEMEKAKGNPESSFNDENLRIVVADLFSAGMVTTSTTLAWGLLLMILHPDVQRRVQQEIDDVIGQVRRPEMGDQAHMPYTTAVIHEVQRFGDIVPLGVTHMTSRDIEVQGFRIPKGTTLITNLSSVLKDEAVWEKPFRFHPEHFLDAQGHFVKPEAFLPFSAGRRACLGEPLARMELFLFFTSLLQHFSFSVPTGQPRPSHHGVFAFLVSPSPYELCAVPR

## N#Cc1cccc(/C=C/c2ccnc(N)n2)c1
[1]
  pEC50: < 4.52

## Nc1ncc([C@@H]2C[C@H]2c2ccccc2)cn1
[1]
  pEC50: < 4.52

## Nc1nc(/C=C/c2ccccc2)cc(C(F)(F)F)n1
[2]
  Emax: 95%
[1]
  pEC50: 6.22

## COc1cc(/C=C/c2ccccc2)nc(N)n1
[2]
  Emax: 106%
[1]
  pEC50: 5.70

## Cc1nc(N)nc(/C=C/c2ccccc2)c1C
[2]
  Emax: 88%
[1]
  pEC50: 5.80

## Nc1nccc(/C=C/c2cccc(F)c2)n1
[2]
  Emax: 99%
[1]
  pEC50: 5.35

## Nc1nccc(/C=C/c2ccc(F)cc2)n1
[2]
  Emax: 106%
[1]
  pEC50: 5.35

## Nc1nccc(/C=C/c2ccncc2)n1
[1]
  pEC50: < 4.52

## N#Cc1ccccc1/C=C/c1ccnc(N)n1
[1]
  pEC50: < 4.52

## C(=C\c1ccnc(-c2ccccc2)n1)/c1ccccc1
[1]
  pEC50: < 4.52

## Nc1nccc(/C=C/c2cccnc2)n1
[2]
  Emax: 55%
[1]
  pEC50: 4.79

## Nc1ncc(Cl)c(/C=C/c2ccccc2)n1
[2]
  Emax: 102%
[1]
  pEC50: 5.80

## Nc1nc(O)cc(/C=C/c2ccccc2)n1
[1]
  pEC50: < 4.52

## Nc1cc(/C=C/c2ccccc2)nc(N)n1
[1]
  pEC50: < 4.52

## Nc1nccc(-c2ccc3ccccc3c2)n1
[1]
  pEC50: < 4.52

## Cc1ccc(/C=C/c2ccnc(N)n2)cc1
[1]
  pEC50: < 4.52

## CN(C)c1nccc(/C=C/c2ccccc2)n1
[1]
  pEC50: < 4.52

## Nc1nccc(/C=C/c2ccccn2)n1
[2]
  Emax: 92%
[1]
  pEC50: 4.93

## Cc1cnc(N)nc1/C=C/c1ccccc1
[2]
  Emax: 94%
[1]
  pEC50: 6.70

## Nc1nccc(/C=C/c2cccs2)n1
[2]
  Emax: 98%
[1]
  pEC50: 5.39

## CS(=O)(=O)Nc1nccc(/C=C/c2ccccc2)n1
[1]
  pEC50: < 4.52

## Cc1cc(/C=C/c2ccccc2)nc(N)n1
[2]
  Emax: 99%
[1]
  pEC50: 6.10

## CCOC(=O)C(=O)Nc1nccc(/C=C/c2ccccc2)n1
[2]
  Emax: 82%
[1]
  pEC50: 5.30

## Nc1nccc(CCc2ccccc2)n1
[1]
  pEC50: < 4.52

## Nc1nccc(C#Cc2ccccc2)n1
[2]
  Emax: 86%
[1]
  pEC50: 4.70

## Cc1nccc(/C=C/c2ccccc2)n1
[2]
  Emax: 67%
[1]
  pEC50: 5.16

## N#Cc1ccc(/C=C/c2ccnc(N)n2)cc1
[1]
  pEC50: < 4.52

## Nc1nccc(-c2cc3ccccc3o2)n1
[2]
  Emax: 58%
[1]
  pEC50: 5.31

## Nc1nccc(-c2cc3ccccc3s2)n1
[1]
  pEC50: < 4.52

## Sc1nccc(/C=C/c2ccccc2)n1
[2]
  Emax: 115%
[1]
  pEC50: 5.11

## Nc1cncc(/C=C/c2ccccc2)n1
[2]
  Emax: 72%
[1]
  pEC50: 4.80

## Nc1nccc(/C=C/c2ccccc2)n1
[3]
  Stability: 62%
Homo sapiens
  QH: 83%
[4]
  pEC50: < 5.00
[5]
  fraction unbound: 0.1
Cytochrome P450 3A4
  inhibition (INH): Not Active
Cytochrome P450 2C19
  inhibition (INH): Not Active
[6]
  concentration at 0.5 h: 33.8 µM
[7]
  pEC50: < 4.52
Cytochrome P450 2D6
  inhibition (INH): Not Active
[8]
  Vd: 2.7 L/kg
[9]
  Kp at 0.5 h: 2.9
[2]
  Emax: 106%
[1]
  pEC50: 6.00
[10]
  Papp A→B: 41.9 ×10⁻⁶ cm/s
Rattus norvegicus [11]
  Activity: Dose-dependent effect
  inhibition: Dose-dependent effect
Cytochrome P450 2C9
  inhibition (INH): Not Active
Rattus norvegicus [12]
  QH: 83%
[13]
  pEC50: < 5.00
[14]
  pIC50: < 4.52
[15]
  concentration at 0.5 h: 0.7 µM
[16]
  MRT: 36 min
[17]
  Activity: > 50%
[18]
  Papp B→A: 19.6 ×10⁻⁶ cm/s
[19]
  pIC50: < 5.00
[20]
  bioavailability: 51%
[21]
  Activity: > 50%
[22]
  Stability: 62%
[23]
  clearance: 75 mL/min/kg
[24]
  Activity: > 50%
[25]
  pEC50: 6.00
[26]
  concentration at 0.5 h: 11.6 µM

## Nc1nccc(/C=C/c2ccco2)n1
[2]
  Emax: 94%
[1]
  pEC50: 5.03

## CNc1nccc(/C=C/c2ccccc2)n1
[1]
  pEC50: < 4.52

## Nc1cccc(/C=C/c2ccccc2)n1
[2]
  Emax: 92%
[1]
  pEC50: 5.24

## Cc1cccc(/C=C/c2ccnc(N)n2)c1
[1]
  pEC50: < 4.52

## Nc1nccc(/C=C/c2ccccc2F)n1
[2]
  Emax: 101%
[1]
  pEC50: 5.54

## Nc1ncc(Br)c(/C=C/c2ccccc2)n1
[2]
  Emax: 94%
[1]
  pEC50: 5.89

## Cc1ccccc1/C=C/c1ccnc(N)n1
[1]
  pEC50: < 4.52
